Data published in patent US20090275586A1, “HETEROCYCLIC INHIBITORS OF PDE4” (KALYPSYS, INC., priority 2006, published 2009).

What was measured:
PDE4B = target: T1, PDE4B (Homo sapiens, UniProt Q07343); assay: PDE4 IMAP Assay; type: biochemical; settings: 2 h; Activity at 10 μM; catalytic domain of PDE4B; read-out: PDE IMAP Assay
T1 construct: hexa-histidine (His6) (N); made in house
Source text: Compounds may be screened for functional potency in in vitro biochemical assays for their ability to inhibit the activity of phosphodiesterase (PDE) enzymes. A commercial PDE assay, Molecular Device's PDE IMAP assay, was modified and utilized to measure the inhibitory activity of compounds on PDE isoforms. The IMAP technology is based on the high affinity binding of phosphate by immobilized metal (MIII) coordination complexes on nanoparticles. This IMAP “binding reagent” complexes with phosphate groups on the nucleotide monophosphates generated in the reaction. Such binding causes a change in the rate of the molecular motion of the nucleotide, and results in an increase in the fluorescence polarization value observed for the fluorescent label attached to the substrate. PDE inhibitors prevent the generation of nucleotide monophosphates and the subsequent increase in polarization value observed for the fluorescent label attached to the substrate. The catalytic domain of PDE4B was fused to an amino-terminus hex-histadine affinity tag and purified. PDE4B enzyme was incubated with compounds for 10 minutes. Fluorescently labeled cyclic AMP substrates were then added to the PDE enzyme mix and incubated for 2 hours at room temperature. IMAP binding reagent was then added to the enzyme mix, incubated for 10-30 minutes and fluorescent polarization of the fluorescently labeled substrate was read either with the Perkin Elmer Viewlux or Molecular Devices Acquest or Analyst. Roflumilast and Rolipram are the positive controls used in the assay.

PDE4 = PDE4 Cellular CNG Assay; type: cell-based; settings: Activity at 10 μM; HEK293 cells stably expressing the CNG channel
Source text: Compounds may be screened for functional potency in in vitro cellular assays for their ability to inhibit the activity of phosphodiesterase (PDE) enzymes. A commercial membrane potential assay, Molecular Device's membrane potential assay kit, was modified and utilized to measure the inhibitory activity of compounds on PDE isoforms in living cells. The cellular assay utilizes genetically engineered cyclic nucleotide-gated (CNG) channels as cyclic-AMP (cAMP) sensors. On binding cAMP these ion channels open, allowing the flow of cations across the plasma membrane. CNG channel activity can be monitored by measuring Ca^2+ influx in cell populations. The influx of Ca causes a change in membrane potential that is measured by voltage sensitive dyes. PDE inhibitors prevent the degradation of cAMP that is generated by adenylyl cyclases that are activated upon stimulation of G protein-coupled receptors (GPCR) linked to the cAMP pathway. In brief, Molecular Device's membrane potential dye was added to HEK293 cells stably expressing the CNG channel and incubated for 2 hours at room temperature. Test compounds were then added to the cells and incubated for 15 minutes. A GPCR agonist was then added to the cells to stimulate the cAMP pathway and incubated for 45 minutes. Fluorescent measurements were then conducted with either the Molecular Devices Acquest or Analyst. PDE inhibitors will inhibit the degradation of cAMP and cause an increase in fluorescent signal. Roflumilast and Rolipram are the positive controls used in the assay.

recombinant human PDE4 = settings: reported value; read-out: IC50 with respect to inhibiting recombinant human PDE4; cited from earlier work

T1 sequence (Q07343 330-659 limits assumed, species assumed): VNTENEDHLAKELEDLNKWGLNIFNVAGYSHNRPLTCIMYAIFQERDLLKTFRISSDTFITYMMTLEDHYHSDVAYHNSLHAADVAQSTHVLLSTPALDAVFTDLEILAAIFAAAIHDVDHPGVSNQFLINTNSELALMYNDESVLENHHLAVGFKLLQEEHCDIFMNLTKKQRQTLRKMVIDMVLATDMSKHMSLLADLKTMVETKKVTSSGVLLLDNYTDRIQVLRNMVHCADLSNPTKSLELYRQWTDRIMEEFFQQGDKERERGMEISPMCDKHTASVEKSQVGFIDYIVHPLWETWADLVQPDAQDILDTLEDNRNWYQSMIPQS

SMILES	inhibition at 10 µM (PDE4B)	Cellular CNG Assay (PDE4)	IC50 (recombinant human PDE4)
Cc1c(Cc2ccccc2)c(N2CCNCC2)n2c(nc3ccccc32)c1C#N [Example 25, 2-Benzyl-3-methyl-1-piperazin-1-yl-benzo[4,5]imidazo[2-a]pyridine-4-carbonitrile]	≥ 50%	− (−indicates Activity < 50% at 10 μM)	
C/C(NCCO)=C1\C(=O)N(c2nc3ccccc3s2)N=C1c1ccccc1 [Example 28, (E)-1-(Benzo[d]thiazol-2-yl)-4-(1-(2-hydroxyethylamino)ethylidene)-3-phenyl-1H-pyrazol-5(4H)-one]	≥ 50%	+ (+indicates Activity ≧ 50% at 10 μM)	
CCOC(=O)C1=C(C)N(CC(C)C)C(=O)/C1=C\c1ccc(OC)c(OC)c1 [Example 29, (Z)-Ethyl 4-(3,4-dimethoxybenzylidene)-1-isobutyl-2-methyl-5-oxo-4,5-dihydro-1H-pyrrole-3-carboxylate]	≥ 50%	+ (+indicates Activity ≧ 50% at 10 μM)	
COc1ccc(C2CNC(=O)C2)cc1OC1CCCC1 (stereo not shown) [rolipram]			~200 nM

Further lines, with some results ahead:

inhibition at 10 µM (PDE4B)	SMILES	Cellular CNG Assay (PDE4)	IC50 (recombinant human PDE4)
≥ 50%	COc1ccc(-c2cnnn2-c2ccc(NC(=O)c3ccc4c(c3)OCO4)cc2)cc1OC [Example 23, N-(4-(5-(3,4-dimethoxyphenyl)-1H-1,2,3-triazol-1-yl)phenyl)benzo[d][1,3]dioxole-5-carboxamide]	+ (+indicates Activity ≧ 50% at 10 μM)	
≥ 50%	CC(C)CCn1c(=O)c2ccccc2n2c(CN3CCN(c4ncccn4)CC3)nnc12 [Example 26, 4-Isopentyl-1-((4-(pyrimidin-2-yl)piperazin-1-yl)methyl)-[1,2,4]triazolo[4,3-a]quinazolin-5(4H)-one]	+ (+indicates Activity ≧ 50% at 10 μM)	
≥ 50%	COc1ccccc1Cn1c(=O)c2cccnc2n(Cc2ccccc2F)c1=O [Example 27, 1-(2-Fluorobenzyl)-3-(2-methoxybenzyl)pyrido[2,3-d]pyrimidine-2,4(1H,3H)-dione]	+ (+indicates Activity ≧ 50% at 10 μM)	
